Patent publication US20020052295A1, “Diacyl derivatives of propylene diamine having herbicidal activity” (priority 1999, published 2002)

Assays:
[1] = test system: ABUTH; experiment: Pre-emergence herbicidal activity on ABUTH (velvetleaf); format: in vivo, Abutilon theophrasti; settings: lowest tested rate giving 80% or greater inhibition, approx. 14 days after planting and treating, greenhouse
Procedure, shortened: (§1)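 Values are GR80 (rate giving 80% inhibition), with rates up to typically 1000 g/ha. Inhibition is visually recorded against untreated pots roughly two weeks after sowing and surface treatment in a 30/21 °C day/night greenhouse.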

[2] = test system: SOLNI; experiment: Pre-emergence herbicidal activity on SOLNI (black nightshade); format: in vivo, Solanum nigrum; settings: lowest tested rate giving 80% or greater inhibition, approx. 14 days after planting and treating, greenhouse
Procedure, shortened: as §1

[3] = test system: AMARE; experiment: Pre-emergence herbicidal activity on AMARE (redroot pigweed); format: in vivo, Amaranthus retroflexus; settings: lowest tested rate giving 80% or greater inhibition, approx. 14 days after planting and treating, greenhouse
Procedure, shortened: as §1

[4] = test system: DATST; experiment: Pre-emergence herbicidal activity on DATST (jimsonweed); format: in vivo, Datura stramonium; settings: lowest tested rate giving 80% or greater inhibition, approx. 14 days after planting and treating, greenhouse
Procedure, shortened: as §1

[5] = test system: CHEAL; experiment: Pre-emergence herbicidal activity on CHEAL (common lambsquarters); format: in vivo, Chenopodium album; settings: lowest tested rate giving 80% or greater inhibition, approx. 14 days after planting and treating, greenhouse
Procedure, shortened: as §1

[6] = test system: CONAR; experiment: Pre-emergence herbicidal activity on CONAR (field bindweed); format: in vivo, Convolvulus arvensis; settings: lowest tested rate giving 80% or greater inhibition, approx. 14 days after planting and treating, greenhouse
Procedure, shortened: as §1

[7] = test system: POROL; experiment: Pre-emergence herbicidal activity on POROL (common purslane); format: in vivo, Portulaca oleracea; settings: lowest tested rate giving 80% or greater inhibition, approx. 14 days after planting and treating, greenhouse
Procedure, shortened: as §1

[8] = test system: CIRAR; experiment: Pre-emergence herbicidal activity on CIRAR (canada thistle, seedling); format: in vivo, Cirsium arvense; settings: lowest tested rate giving 80% or greater inhibition, approx. 14 days after planting and treating, greenhouse
Procedure, shortened: as §1

[9] = test system: ECHCG; experiment: Pre-emergence herbicidal activity on ECHCG (barnyardgrass); format: in vivo, Echinochloa crus-galli; settings: lowest tested rate giving 80% or greater inhibition, approx. 14 days after planting and treating, greenhouse
Procedure, shortened: as §1

[10] = test system: PANMI; experiment: Pre-emergence herbicidal activity on PANMI (wild proso millet); format: in vivo, Panicum miliaceum; settings: lowest tested rate giving 80% or greater inhibition, approx. 14 days after planting and treating, greenhouse
Procedure, shortened: as §1

[11] = test system: SORHA; experiment: Pre-emergence herbicidal activity on SORHA (johnsongrass, seedling); format: in vivo, Sorghum halepense; settings: lowest tested rate giving 80% or greater inhibition, approx. 14 days after planting and treating, greenhouse
Procedure, shortened: as §1

[12] = test system: SETFA; experiment: Pre-emergence herbicidal activity on SETFA (giant foxtail); format: in vivo, Setaria faberi; settings: lowest tested rate giving 80% or greater inhibition, approx. 14 days after planting and treating, greenhouse
Procedure, shortened: as §1

[13] = test system: PANDI; experiment: Pre-emergence herbicidal activity on PANDI (fall panicum); format: in vivo, Panicum dichotomiflorum; settings: lowest tested rate giving 80% or greater inhibition, approx. 14 days after planting and treating, greenhouse
Procedure, shortened: as §1

[14] = test system: SORVU; experiment: Pre-emergence herbicidal activity on SORVU (shattercane); format: in vivo, Sorghum vulgare; settings: lowest tested rate giving 80% or greater inhibition, approx. 14 days after planting and treating, greenhouse
Procedure, shortened: as §1

[15] = test system: BRAPP; experiment: Pre-emergence herbicidal activity on BRAPP (broadleaf signalgrass); format: in vivo, Brachiaria platyphylla; settings: lowest tested rate giving 80% or greater inhibition, approx. 14 days after planting and treating, greenhouse
Procedure, shortened: as §1

[16] = test system: DIGSA; experiment: Pre-emergence herbicidal activity on DIGSA (large crabgrass); format: in vivo, Digitaria sanguinalis; settings: lowest tested rate giving 80% or greater inhibition, approx. 14 days after planting and treating, greenhouse
Procedure, shortened: as §1

[17] = test system: ABUTH; experiment: Post-emergence herbicidal activity on ABUTH (velvetleaf); format: in vivo, Abutilon theophrasti; settings: post-emergence spray; lowest tested rate with 80% or greater inhibition; about 14 days after treatment
Text: (§2) All such uses, and the biological activity enabling such uses, are embraced by the term “herbicidal” herein. Tables 15 and 16 summarize results of tests conducted as described below to determine the pre-emergence herbicidal activity, in the form of a GR80 value, of illustrative compounds of this invention. […] Where herbicidal activity was evident but 80% inhibition was not achieved at the highest rate tested (typically 1000 g/ha), an asterisk (*) is shown in the following tables. Herbicidal activity evident in the form of symptoms of phytotoxicity, in the absence of at least 80% inhibition at any rate, is indicated in the tables by “phyto”. A blank cell in the following tables indicates no herbicidal or phytotoxic response at any rate tested.
(§3) In another set of tests, the post-emergence activity of compounds of this invention was evaluated on the cool season species listed above. The following procedure was used.
(§4) A pre-prepared topsoil mixture (described above) was placed in a pot and compacted to a depth of 1.0 to 1.25 cm from the top of the pot. Seeds of each of several monocotyledonous and dicotyledonous annual plant species were placed on top of the soil The seeds were covered with a mixture of 50% topsoil and 50% Rediearth™ in sufficient quantity to level-fill the pots. The pots were then placed on a greenhouse bench and subirrigated as needed until plants growing from the seeds had emerged and reached a suitable growth stage for post-emergence treatment, typically 9 to 14 days after planting.
(§5) A known amount of each test compound dissolved or suspended in an appropriate organic solvent was diluted with a 50:50 mix of acetone and water and applied to the plants by spraying with a standard spray nozzle in a spray volume of 3,100 l/ha at a spray pressure of […] (30 psig). Control plants were not sprayed.
(§6) After treatment the plants were placed in a greenhouse with a 30/21° C. day/night temperature regime and were subsequently watered as needed for growth. Approximately 14 days after treatment, the plants were observed and herbicidal efficacy recorded as percent inhibition by comparison with control plants.

[18] = test system: SOLNI; experiment: Post-emergence herbicidal activity on SOLNI (black nightshade); format: in vivo, Solanum nigrum; settings: post-emergence spray; lowest tested rate with 80% or greater inhibition; about 14 days after treatment
Text: as §2, §3, §4, §5, §6

[19] = test system: AMARE; experiment: Post-emergence herbicidal activity on AMARE (redroot pigweed); format: in vivo, Amaranthus retroflexus; settings: post-emergence spray; lowest tested rate with 80% or greater inhibition; about 14 days after treatment
Text: as §2, §3, §4, §5, §6

[20] = test system: DATST; experiment: Post-emergence herbicidal activity on DATST (jimsonweed); format: in vivo, Datura stramonium; settings: post-emergence spray; lowest tested rate with 80% or greater inhibition; about 14 days after treatment
Text: as §2, §3, §4, §5, §6

[21] = test system: CHEAL; experiment: Post-emergence herbicidal activity on CHEAL (common lambsquarters); format: in vivo, Chenopodium album; settings: post-emergence spray; lowest tested rate with 80% or greater inhibition; about 14 days after treatment
Text: as §2, §3, §4, §5, §6

[22] = test system: CONAR; experiment: Post-emergence herbicidal activity on CONAR (field bindweed); format: in vivo, Convolvulus arvensis; settings: post-emergence spray; lowest tested rate with 80% or greater inhibition; about 14 days after treatment
Text: as §2, §3, §4, §5, §6

[23] = test system: POROL; experiment: Post-emergence herbicidal activity on POROL (common purslane; table head prints PORAL); format: in vivo, Portulaca oleracea; settings: post-emergence spray; lowest tested rate with 80% or greater inhibition; about 14 days after treatment
Text: as §2, §3, §4, §5, §6

[24] = test system: CIRAR; experiment: Post-emergence herbicidal activity on CIRAR (canada thistle, seedling); format: in vivo, Cirsium arvense; settings: post-emergence spray; lowest tested rate with 80% or greater inhibition; about 14 days after treatment
Text: as §2, §3, §4, §5, §6

## CC(CNC(=O)c1cccc(C(F)(F)F)c1)NC(=O)c1cccc(F)c1F (stereo not drawn) [Example 34]
[1]
  Pre-emergence activity (GR80) on ABUTH: 500 g/ha
[2]
  Pre-emergence activity (GR80) on SOLNI: 250 g/ha
[3]
  Pre-emergence activity (GR80) on AMARE: 125 g/ha
[4]
  Pre-emergence activity (GR80) on DATST: 250 g/ha
[5]
  Pre-emergence activity (GR80) on CHEAL: 125 g/ha
[6]
  Pre-emergence activity (GR80) on CONAR: 750 g/ha
[7]
  Pre-emergence activity (GR80) on PORAL: 125 g/ha
[8]
  Pre-emergence activity (GR80) on CIRAR: 125 g/ha
[9]
  Pre-emergence activity (GR80) on ECHCG: 1000 g/ha
[10]
  Pre-emergence activity (GR80) on PANMI: 250 g/ha
[11]
  Pre-emergence activity (GR80) on SORHA: 750 g/ha
[12]
  Pre-emergence activity (GR80) on SETFA: 250 g/ha
[13]
  Pre-emergence activity (GR80) on PANDI: 125 g/ha
[14]
  Pre-emergence activity (GR80) on SORVU: phyto
[15]
  Pre-emergence activity (GR80) on BRAPP: 250 g/ha
[16]
  Pre-emergence activity (GR80) on DIGSA: 125 g/ha
[17]
  Post-emergence activity (GR80) ABUTH: phyto
[18]
  Post-emergence activity (GR80) SOLNI: phyto
[19]
  Post-emergence activity (GR80) AMARE: 750 g/ha
[20]
  Post-emergence activity (GR80) DATST: 750 g/ha
[21]
  Post-emergence activity (GR80) CHEAL: * (Where herbicidal activity was evident but 80% inhibition was not achieved at the highest rate tested (typically 1000 g/ha), an asterisk (*) is shown)
[22]
  Post-emergence activity (GR80) CONAR: * (Where herbicidal activity was evident but 80% inhibition was not achieved at the highest rate tested (typically 1000 g/ha), an asterisk (*) is shown)
[23]
  Post-emergence activity (GR80) PORAL: 250 g/ha
[24]
  Post-emergence activity (GR80) CIRAR: 1000 g/ha
